{"source": "patent US10632132B2", "about": "“Methods for treating heart transplant rejection” (priority 2018, dated 2020)", "key": {"[1]": {"system": "NF-κB and NLRP3 inflammasome-dependent IL-1β release", "assay": "LPS-induced IL-1β release in mice, measured by ELISA in plasma and peritoneal wash", "assay_type": "in vivo", "conditions": "C57BL/6 mice, 100 mg/kg IP for 1 hour, then LPS 10 mg/kg IP for 2 hours", "procedure": "(§1) While not wishing to be bound by theory, NLRP3 inflammasome activation is a mechanism that mediates the rejection of allotransplantation and in one embodiment of the described invention, it is a possible therapeutic target to treat allotransplantation of a heart. […] C57BL/6 mice were treated with SANA or salicylic acid (SA) (100 mg/kg, IP) or the vehicle (DMSO) for 1 hour. Then were injected with LPS (10 mg/kg, IP) or PBS for 2 hours, with subsequent peritoneal washes and blood extractions. Peritoneal wash and plasma were stored to measure IL-1β by ELISA. […] Rats were administrated with SANA or SA (100 mg/kg), SANA (50 mg/kg) or vehicle (Phosphate buffer) by oral gavage every day since day −1 until day 15 post-transplantation. Heart heterotopic transplantation was done by implantation of the donor heart (Lewis 1W rat) into the receptor abdomen (Lewis 1A rat). Rejection was diagnosed when the heart lost functionality (beats has stopped)."}, "[2]": {"system": "fully mismatched heterotopic heart allograft", "assay": "Fully mismatched heterotopic heart allograft survival in rats", "assay_type": "in vivo, rat (Lewis 1W donor, Lewis 1A receptor)", "conditions": "rat; SANA 100 mg/kg or 50 mg/kg by oral gavage daily from day −1 to day 15 post-transplantation; compared with control (vehicle) and precursor drug SA 100 mg/kg; FIG. 3", "procedure": "as §1"}}, "data": [{"smiles": "O=C(O)c1cc(/C=C/[N+](=O)[O-])ccc1O", "note": "[SANA, 2-hydroxy-5-(2-nitroethenyl)benzoic acid]", "values": [{"measurement": "effect on NF-κB and NLRP3 inflammasome-dependent IL-1β release in the peritoneum", "setting": "[1]; peritoneal wash, FIG. 2", "result": "inhibitory effect"}, {"measurement": "effect on NF-κB and NLRP3 inflammasome-dependent IL-1β release in the plasma", "setting": "[1]; plasma, FIG. 1", "result": "inhibitory effect"}, {"measurement": "heart graft survival (rejection = heart beats stopped)", "setting": "[2]", "result": "prolonged the heart grafted survival"}]}]}
